The source of these data is the OPERA property sets (Mansouri et al. 2018).

Converted amounts (≈) assume the structure as drawn. Bounds are passed on as bounds.

Usually logP stands for the decadic logarithm of the partition coefficient of the neutral form, usually between octanol and water. Low values mean a more hydrophilic compound, high ones a more lipophilic compound. Usually solubility stands for the concentration that dissolves in the medium under given conditions. Read a high solubility as much dissolved substance. By logD is commonly meant the decadic logarithm of the distribution of all forms, ionised or not, between an organic phase and buffer at a given pH. A lower logD goes with a more hydrophilic compound.

Consider `C/C=C(\C)C(=O)O[C@H]1C[C@@H](OC(C)=O)[C@@]2(C(=O)OC)CO[C@H]3[C@@H](O)[C@@](C)([C@]45O[C@@]4(C)[C@H]4C[C@@H]5O[C@@H]5OC=C[C@@]54O)[C@H]4[C@]1(CO[C@]4(O)C(=O)OC)[C@@H]32`, for which the logP was 1.09.

Consider `O=C(Nc1ccc(Cl)c(Cl)c1)Nc1cc(Cl)ccc1Oc1ccc(Cl)cc1S(=O)(=O)[O-].[Na+]`, for which the log partition coefficient (logP) turned out to be 1.89.

As for `CCOC(=O)C1=NN(c2ccc(Cl)cc2Cl)C(C)(C(=O)OCC)C1` (stereo not drawn), the logP came out at 3.83. This compound showed a solubility (pH 6.2, 20 °C) of 0.0536 mM (≈ 20 µg/mL).

The compound `CCOCOc1ccc(C(=O)Nc2cccc(Cl)c2Cl)cc1` registered a logP of 4.3. The solubility (25 °C) is 0.0027 mM (≈ 0.92 µg/mL).

As for `CCc1nn(C)c(C(=O)NCc2ccc(C(C)(C)C)cc2)c1Cl`, the logP was found to be 4.61.

`CNC(=O)CSP(=O)(OC)OC` yielded a lipophilicity (logP) of -0.74.

Regarding `Oc1ccc(Cl)cc1Cc1cc(Cl)ccc1O`, the solubility (25 °C) amounted to 0.111 mM (≈ 30 µg/mL).

Take `C[N+]1(C)CCCCC1.[Cl-]`: the logD (pH 7.0) is -2.82.

With `CC1(C)[C@H](/C=C(\Cl)C(F)(F)F)[C@@H]1C(=O)O[C@H](C#N)c1cccc(Oc2ccccc2)c1`, the logP worked out at 6.8.

Take `COCCN(C(=O)CCl)c1c(C)cccc1C`: the logP is 2.17. The same compound yielded a solubility (20 °C) of 8.59 mM (≈ 2200 µg/mL).

For the compound `COc1cc(OC)nc(Oc2cccc(Oc3nc(OC)cc(OC)n3)c2C(=O)[O-])n1.[Na+]`, the lipophilicity (logP) was -1.03.

For `CC#Cc1cc(C)nc(Nc2ccccc2)n1`, the lipophilicity (logP) came to 3.28.

`CCCC(=NOCC)C1=C(O)CC(C2CCCSC2)CC1=O` (stereo not drawn) returned a solubility (20 °C) of 0.123 mM (≈ 40 µg/mL).

Compound `Cc1cc(C)nc(Nc2ccccc2)n1` returned a pH-dependent lipophilicity (logD) (pH 6.1) of 2.84. Also, under “pH 6.1, 25 °C”, the solubility was determined as 0.607 mM (≈ 121 µg/mL).

In turn, `CNC(=O)ON=C(C)C(C)SC` (stereo not drawn) had a lipophilicity (logP) of 1.1. The compound further showed a solubility (20 °C) of 184 mM (≈ 35000 µg/mL).

As for `O=C1CC(C(=O)O)CC(=O)C1=C(O)C1CC1` (stereo not drawn), the logD (pH 2.0) was found to be 1.8. In addition, the solubility (pH 5.0, 20 °C) is 5.8 mM (≈ 1300 µg/mL).

As to `CCc1cccc(C)c1N(COC(C)C)C(=O)CCl`, the logP stood at 3.5.

Compound `Cc1cc(C)nc(NC(=O)NS(=O)(=O)c2ccccc2C(=O)OC2COC2)n1` registered a solubility (pH 5.1, 25 °C) of 0.128 mM (≈ 52 µg/mL).

Consider `CCNc1nc(Cl)nc(NCC)n1`, for which the solubility (20 °C) amounted to 0.046 mM (≈ 9.28 µg/mL).

In turn, `CCCOCCN(C(=O)CCl)c1c(CC)cccc1CC` had a logP of 4.08. Further, for the setting “20 °C”, the solubility came to 0.16 mM (≈ 50 µg/mL).

Compound `Cc1cccc(C)c1N(Cn1cccn1)C(=O)CCl` showed a logP of 2.13.

Compound `O=C(O)c1ccccc1C(=O)Nc1ccccc1` displayed a solubility (20 °C) of 0.0829 mM (≈ 20 µg/mL).

The compound `COc1cc(OC)nc(Sc2cccc(Cl)c2C(=O)[O-])n1.[Na+]` showed a logD (pH 5.0) of 0.6.

`Cc1c(F)c(F)c(COC(=O)C2C(/C=C(\Cl)C(F)(F)F)C2(C)C)c(F)c1F` (stereo not drawn) registered a logP of 6.5.

`COP(=O)(OC)OC1=C(Cl)C2C=CCC12` (stereo not drawn) came in with a lipophilicity (logP) of 2.32.

`C=C/C=C\CC1=C(C)[C@@H](OC(=O)[C@@H]2[C@@H](/C=C(\C)C(=O)OC)C2(C)C)CC1=O` had a logP of 4.3.

With `CCN(CC)C(=O)C(Cl)=C(C)OP(=O)(OC)OC`, the logP is 0.79.

In turn, `CCN(CC)C(=O)n1cnc(S(=O)(=O)c2c(C)cc(C)cc2C)n1` registered a logP of 3.21.

`CCCCCCCCSC(=O)Oc1cc(Cl)nnc1-c1ccccc1` came in with a solubility (20 °C) of 0.00396 mM (≈ 1.5 µg/mL).

For `COc1ccc(-c2ccccc2)cc1NNC(=O)OC(C)C`, the solubility (20 °C) was found to be 0.0125 mM (≈ 3.76 µg/mL).

For the compound `CCOC(=O)Cn1c(=O)sc2cccc(Cl)c21`, for the setting “20 °C”, the solubility worked out at 0.173 mM (≈ 47 µg/mL).

The compound `CCCSC(=O)N(CCC)CCC` had a logP of 3.84. Also, the solubility (20 °C) worked out at 0.443 mM (≈ 90 µg/mL).

`CCCOC(=O)NCCCN(C)C` returned a solubility (pH 7.0, 20 °C) of 4780 mM (≈ 900000 µg/mL).

On to `CC1(C)[C@H](C=C(Cl)Cl)[C@H]1C(=O)OCc1c(F)c(F)cc(F)c1F`, for which, where the note is “20 °C”, the solubility is 0.000154 mM (≈ 0.057 µg/mL).

`CCOC(=O)C(Cl)Cc1cc(-n2nc(C)n(C(F)F)c2=O)c(F)cc1Cl` (stereo not drawn) displayed a lipophilicity (logP) of 3.36. The solubility (25 °C) was 0.0534 mM (≈ 22 µg/mL).

Under “25 °C”, `O=C(Nc1ccc(F)cc1F)c1cccnc1Oc1cccc(C(F)(F)F)c1` gave a solubility of under 0.000127 mM.

`O=[n+]1[n-]c(-n2ccnc2)nc2ccc(Cl)cc21` came in with a lipophilicity (logP) of 2.04. For the setting “20 °C”, the solubility stood at 0.137 mM (≈ 34 µg/mL).

In turn, `CC(C)(C)c1cc([N+](=O)[O-])cc([N+](=O)[O-])c1O` had a solubility (pH 5.0, 20 °C) of 0.0187 mM (≈ 4.5 µg/mL).

Regarding `COP(N)(=O)SC` (stereo not drawn), the logP was -0.8.

The compound `C=C/C=C\CC1=C(C)[C@@H](OC(=O)[C@@H]2[C@@H](C=C(C)C)C2(C)C)CC1=O` displayed a logP of 5.9.

`C#CCOc1cc(-n2nc(C(C)(C)C)oc2=O)c(Cl)cc1Cl` showed a lipophilicity (logP) of 3.95. Also, under “20 °C”, the solubility was 0.00108 mM (≈ 0.37 µg/mL).

`COC(=O)CSc1cc(/N=c2\sc(=O)n3n2CCCC3)c(F)cc1Cl` showed a logP of 3.77.

`O=C([O-])C(F)(F)C(F)F.[Na+]`: the logP is 1.32. For the setting “20 °C”, this compound yielded a solubility of 131 mM.

The compound `CN(C)S(=O)(=O)N(SC(F)(Cl)Cl)c1ccccc1` yielded a log partition coefficient (logP) of 3.7.

On to `CS/C(C)=N/OC(=O)N(C)SN(C)C(=O)O/N=C(\C)SC`, for which, where the note is “25 °C”, the solubility amounted to 0.0729 mM (≈ 25.8 µg/mL).

Regarding `CNC(=O)Oc1cc(C)cc(C)c1`, for the setting “20 °C”, the solubility turned out to be 2.62 mM (≈ 470 µg/mL).
